Literature values in patent publication US10945947B2, “Formulations for intravenous administration” (GLAXOSMITHKLINE INTELLECTUAL PROPERTY (NO.2) LIMITED, priority 2015, dated 2021).
Where a name gives a salt, the structure may show the parent alone.

Conditions: at a higher pH, after oral administration

In the case of `Cc1c(F)cccc1NC(=O)Nc1ccc(Cl)c(S(=O)(=O)[C@H]2CCCNC2)c1O` [hydrobromide salt of danirixin], the “solubility and dissolution profiles compared to the free base” value is given as “improved solubility and dissolution profiles”.
